In PMC10386886, “First-in-class multifunctional TYMS nonclassical antifolate inhibitor with potent in vivo activity that prolongs survival” (JCI Insight, 2023):

Columns and labels:
[1] = test system: MIA PaCa-2 cells; assay: MTS viability assay, MIA PaCa-2; format: cell-based; details: Homo sapiens, 72-hour drug treatment, Figure 6E, highest concentration 350 μM
Protocol: Cells were harvested after 72 hours, and cell pellets were stored at –80°C. […] After 72 hours, cell viability was assessed by reduction of MTS using Cell Titer 96 R Aqueous One Solution Cell Proliferation Assay Kit (Promega, catalog G8081), following manufacturer’s recommendations. […] was measured on a SpectraMax M3 (Molecular Devices). Data were plotted in GraphPad Prism 9 to determine GI50 concentration. Chemical synthesis details, including characterization of each compound, can be found in the Supplemental section associated with this publication.

[2] = target: T1, purified human TYMS (Homo sapiens, UniProt P04818); assay: Competitive drug displacement assay (tritium TYMS assay); format: biochemical
T1 construct: 6xHis (N); made in house; host or cells: E. coli BL21 (DE3), vector pQE80L-hTYMS
Protocol: For these experiments the TYMS protein was first incubated with each drug, and the reaction was then initiated by addition of 5,10-mTHF and dUMP using different concentrations of either 5,10-mTHF or dUMP to change the substrate/drug ratio. If there was competition between one of the substrates and the drug for the same binding site, then increasing the substrate concentration would displace more of the prebound drug and shift the equilibrium toward the enzyme/substrate complex, thus allowing the conversion of dUMP to proceed (Figure 7A). […]
all components including 2 µg TYMS protein to show the range of the assay, the background signal, and the dependence on 5,10-mTHF (Supplemental Figure 2C). To determine the signal from the [5-3H]dUMP tracer used in each reaction the same amount of the dUMP substrate with the [5-3H]dUMP tracer accounting for 0.06% of the final dUMP concentration was added directly to 5 mL of ultima gold liquid scintillation cocktail (Supplemental Figure 2C).
All reactions were performed in biological duplicate and technical duplicate. Results were analyzed using GraphPad Prism 9.
Competitive drug displacement assay
The tritium based TYMS catalytic activity assay was modified to determine if TYMS inhibition from 19-S, 19-S5, and 19-S7 was the result of competitive binding with either the dUMP substrate or the 5,10-mTHF cofactor. The competitive drug displacement assay utilized the standard reaction conditions for the tritium-based TYMS catalytic activity assay including 40 µM dUMP (Sigma Aldrich, Cat # D3876) with the [5- 3H]dUMP tracer (ViTrax, VT122) accounting for 0.06% of the final dUMP concentration and 100 µM 5,10- methylene tetrahydrofolate (defined as 1x dUMP and 1x 5,10-mTHF). Concentrations of total dUMP and 5,10- mTHF were then changed relative to these 1x concentrations to concisely indicate the changes in either the substrate or cofactor concentration. The highest 5x concentration of 5,10 - […]
5x concentration of total dUMP was not limited by solubility, although increases were performed in the same increments as 5,10-mTHF for comparison and 0.06% of the [5-3H]dUMP tracer was maintained at all concentrations. The remaining components in each 200 µL reaction were consistent in all reactions and included 2 µg of purified human TYMS in 50 mM KH2PO4 (Sigma Aldrich, Cat # P0662) and 100 mM β- mercaptoethanol (Sigma Aldrich, Cat # M7522). Control antifolate inhibitor PEM (Sigma Aldrich, Cat # PHR1596) was performed for reference of a TYMS specific classical antifolate and to […]
Human TYMS and DHFR preparation
Human Thymidylate Synthase (hTYMS) and human Dihydrofolate Reductase (hDHFR) were both expressed in BL21 (DE3) E. coli cells, using a standard BL21 transformation protocol, with the expression vector pQE80L-hTYMS (gift from Maria Paola Costi, University of Modena and Reggio Emilio, Italy) and pET100/D- TOPO (Invitrogen, Cat # K10001), respectively. Both vectors contained an N-terminal 6x Histidine tag attached to either hTYMS or hDHFR. After bacterial transformation, cells

[3] = target: T2, DHFR (Homo sapiens, UniProt P00374); assay: Absorbance-based DHFR activity assay; format: biochemical; details: Figure 6D
T2 construct: purchased Sigma D6566 (kit CS0340)
T2 sequence (P00374 1-187): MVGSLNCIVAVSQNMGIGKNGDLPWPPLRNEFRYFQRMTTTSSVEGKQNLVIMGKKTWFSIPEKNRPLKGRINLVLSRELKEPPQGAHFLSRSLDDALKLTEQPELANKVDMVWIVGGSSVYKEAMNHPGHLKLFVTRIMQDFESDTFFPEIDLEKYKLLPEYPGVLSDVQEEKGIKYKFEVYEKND
Protocol: DHFR assay kit (Sigma Aldrich, Cat # CS0340) as described by the manufacturer. 0.1-unit DHFR
analogues or control drugs, 6 μL NADPH Cat # N6505 solution and 5 μl of dihydrofolic acid (DHFR
substrate) (Sigma, Cat # D7006). The reaction was then read on the spectrophotometer at 340 nm at
22 °C every 15 seconds for 2.5 minutes.

[4] = TS preincubated with drug, Figure 7

T1 sequence (P04818 whole entry): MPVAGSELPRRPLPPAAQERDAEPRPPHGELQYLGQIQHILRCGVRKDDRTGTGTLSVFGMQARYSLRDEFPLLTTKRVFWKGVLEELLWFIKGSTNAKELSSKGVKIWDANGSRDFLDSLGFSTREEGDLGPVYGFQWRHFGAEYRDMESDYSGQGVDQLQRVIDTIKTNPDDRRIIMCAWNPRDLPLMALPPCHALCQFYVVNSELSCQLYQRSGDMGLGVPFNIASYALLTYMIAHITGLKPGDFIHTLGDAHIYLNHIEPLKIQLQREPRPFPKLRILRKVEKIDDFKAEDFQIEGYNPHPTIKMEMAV

Compound: CCc1nc(N)nc(N)c1-c1ccc(N(C)Cc2ccc3c(c2)OCO3)c([N+](=O)[O-])c1 [Compound 19-S7]
- GI50 [1]: 0.2 µM
- Mechanism of TYMS inhibition [2]: blocking the folate-binding site
- dUMP conversion with increasing 5,10-mTHF concentration [2, 4]: increased the amount of dUMP conversion
- dUMP conversion with increasing dUMP concentration [2, 4]: the amount of dUMP conversion did not increase
- DHFR activity, comparison at reduced drug concentrations [3]: potent TYMS and DHFR inhibition
